Assay results from patent US20260028334A1, “N-(3-(BENZO[B]THIOPHENE-2-CARBOXAMIDO)-PHENYL)-2,3-DIHYDROBENZO[B][1,4]DIOXINE-6-CARBOXAMIDE DERIVATIVES AND RELATED COMPOUNDS AS LACTATE/ATP PRODUCTION INHIBITORS FOR THE TREATMENT OF CANCER” (WMT Aktiengesellschaft, priority 2022, published 2026).

Assays:
Panc02 and SKOV3 cells = assay: Assay for inhibition of ATP production (FIGS. 8A and 8B); type: cell-based; details: 48 hours treatment, 1.5 to 10000 nM
Procedure: The assay determines the amount of ATP in cells in culture.
Cells were plated at 4,000 per well in 96-well plate in a medium of high glucose DMEM (PAN) supplemented with 10% FBS (PAN), 2 mM glutamine-alanine (PAN), 2 mM pyruvate (Sigma) and 10 mL/L penicillin-streptomycin and grown at 37° C. in 0.5% O2, 5% CO2 and 75% humidity. For hypoxia, cells were grown and treated in the Whitley H35 Hypoxystation (Don Whitley Scientific) at 37° C. in 0.5% O2, 5% CO2 and 75% humidity. The next day, cells were induced with test compounds (FIG. 1: compounds of examples 3/16, 3/8, 10 at 10000, 3333, 1111, 370, 123, 41, 14, 5 and 1.5 nM; FIGS. 8A and 8B: compounds of example 3/19, 30 and 30/2 at 10000, 3333, 1111, 370, 123, 41, 14, 5 and 1.5 nM), as well as with vehicle (DMSO) only, for 48 hours. After this time, the medium was removed from the cells and intracellular ATP levels were determined using the Promega CellTiter-Glo 2.0 assay protocol (Promega, G9241). To estimate the effect of compounds on the ATP production, sample values were compared to the values of DMSO only. IC50 values were generated by plotting the luciferase counts against compound concentration.

HIF1a = HIF1a (Homo sapiens (Human), UniProt Q16665); assay: Western Blot analysis of HIF1a; type: cell-based; details: HeLa cells, 24 hours, 0.1, 0.3 and 1 μM, normoxic and hypoxic conditions, FIG. 4
Procedure: Western Blot analysis was used to detect amounts of specific protein in differently treated cells. Proteins are separated by size, transferred onto a nitrocellulose membrane and incubated with protein specific antibodies. The density of the observed band is proportional to the amount of the specific protein inside the cell.
Cells were plated at 4×10^6 (for hypoxia) or 3×10^6 (for normoxia) cells per […] plate in medium of high glucose DMEM (PAN) supplemented with 10% FBS (PAN), 2 mM glutamine-alanine (PAN), 2 mM pyruvate (Sigma) and 10 ml/L penicillin-streptomycin (PAN), and grown at 37° C. in 0.5% O2, 5% CO2 and 75% humidity. For hypoxia, cells were grown and treated in the Whitley H35 Hypoxystation (Don Whitley Scientific) at 37° C. in 0.5% O2, 5% CO2 and 75% humidity. Next day, the cells were treated with test compounds (FIG. 4: compounds of example 3/8 and 10 at concentrations 0.1, 0.3 and 1 μM, Bafilomycin A at 20 nM; FIG. 5: compounds of example 3/16, 3/8 and 10 at concentrations 10, 30 and 100 nM, Bafilomycin A at 20 nM), as well as with vehicle (DMSO) only, for 24 h. […] Protein concentration of the sample was measured using the DC Protein Assay Kit (Biorad, 5000112), 22 μg of protein extract per well was loaded onto a precast SDS page gel (Biorad, 1704273). […] The chemiluminescence was measured using chemiluminescent substrate (#34580, Thermo Scientific).

Compound	ATP production level (Panc02 and SKOV3 cells)	HIF1a protein levels (HIF1a)
Cc1ccc(NC(=O)c2ccc3c(c2)OCCO3)cc1NC(=O)c1cc2cccnc2s1 [3/16]	dose-dependent reduction	–
O=C(Nc1ccc(F)c(NC(=O)c2cc3ccc(OCCCN4CCCC4)cc3s2)c1)c1ccc2c(c1)OCCO2 [3/8]	dose-dependent reduction	dose-dependent reduction
